Measurements published in US9346741B2, “Polyamine transport selective therapeutic agents with enhanced stability” (University of Central Florida Research Foundation, Inc., priority 2012, dated 2016).
Where “and” joins values, the source holds several entries; their conditions need not be identical. Identical values can stand only once. Like-named read-outs stand apart in the source and are kept apart here. Marks after values point to notes of the source that are not given here.

Legend:
CHO cells = experiment: in vitro; format: cell-based; details: for IC50: 48 h at 37° C.; for MTD (μM) in CHO (maximum tolerated dose): hamster
Description: (§1) CHO cells were chosen along with a mutant cell line (CHO-MG*) to comment on how the synthetic conjugates gain access to the cells.^2c-e, 6 As discussed earlier, the CHO-MG cell line is polyamine-transport deficient and represents a model for alternative modes of entry (other than PTS) including passive diffusion or use of another transporter. The CHO cell line on the other hand, represents cells with high polyamine transport activity.^7, 10c A comparison of toxicity in these two CHO cell lines allowed for a screen that would detect selective use of the polyamine transporter. This is seen where high utilization of the PTS would be very toxic to CHO cells, however, there would not be the same level of toxicity found in CHO-MG cells.^2c-e, 6 Ultimately, a CHO-MG/CHO IC50 can be determined where a high ratio would be achieved for highly PTS selective compounds.
(§2) CHO and CHO-MG cells were grown in RPMI 1640 medium supplemented with 10% fetal calf serum and 1% penicillin/streptomycin. Note: the media must contain L-proline (2 μg/mL) for proper growth of the CHO-MG cells. MALME-3M cells were grown in RPMI 1640 medium supplemented with 10% FBS and 1% penicillin/streptomycin. […] Cells in early to mid-log phase were used.
(§3) Cell growth was assayed in sterile 96-well microtiter plates (Costar 3599, Corning, N.Y., USA). CHO and CHO-MG* cells were plated at 10,000 cells/mL. MALME-3M and MALME-3 cells were plated at 5,000 cells/mL. Drug solutions (10 μL per well) of appropriate concentration were added after an overnight incubation for each CHO cell line (90 μL). 48 h MALME-3M experiments were conducted using 10% Nu-Serum IV, and 96 h MALME-3M and MALME-3 experiments were conducted using 10% FBS. After exposure to the drug for 48 h (CHO, CHO-MG*, and MALME-3M) or 96 h (MALME-3M and MALME-3), cell growth was determined by measuring formazan
(§4) formation from 3-(4,5-dimethylthiazol-2-yl)-5-(3-carboxymethoxyphenyl)-2-(4-sulphenyl)-2H-tetrazolium) inner salt (MTS) using a SynergyMx Biotek microplate reader for absorbance ([…]) measurements.^24

[1] = test system: polyamine transport system (PTS), CHO-MG* vs CHO cells; experiment: CHO-MG*/CHO IC50 ratio, a measure of PTS selectivity; format: cell-based, Chinese hamster; details: 48 h; for IC50 ratio w/AG (CHO-MG*/CHO): with 1 mM AG; for IC50 ratio w/o AG (CHO-MG*/CHO): without AG
Description: Compounds with high CHO-MG/CHO IC50 ratios are considered PTS selective.
as §1

[2] = test system: MALME-3M (melanoma) vs MALME-3 (normal) cells; experiment: MALME-3/MALME-3M IC50 ratio, a measure of selectivity; format: cell-based, human; details: 96 h; 1 mM AG
Description: These matched cell lines provided a method to assess PTS selectivity for the cancer line (MALME-3M) over the non-cancerous cell line (MALME-3).

CHO-MG* cells = experiment: Cytotoxicity IC50 determination (MTS) in polyamine-transport-deficient CHO-MG* cells; format: cell-based, Chinese hamster; details: 48 h at 37° C.
Description: as §1, §2, §3, §4

MALME-3M cells [3] = experiment: Cytotoxicity IC50 determination (MTS) in MALME-3M cells; format: cell-based, human
Protocol: Armed with this insight, compounds 5a-8b were evaluated in the MALME-3M (melanoma) cell line and its non-cancerous counterpart MALME-3 obtained originally from the same patient. These matched cell lines provided a method to assess PTS selectivity for the cancer line (MALME-3M) over the non-cancerous cell line (MALME-3). […]
(§5) CHO and CHO-MG cells were grown in RPMI 1640 medium supplemented with 10% fetal calf serum and 1% penicillin/streptomycin. Note: the media must contain L-proline (2 μg/mL) for proper growth of the CHO-MG cells. MALME-3M cells were grown in RPMI 1640 medium supplemented with 10% FBS and 1% penicillin/streptomycin. All cells were grown at 37° C. under a humidified 5% CO2 atmosphere Aminoguanidine (1 mM) was added to the growth medium to prevent oxidation of the drugs by the enzyme (bovine serum amine oxidase) present in calf serum. Cells in early to mid-log phase were used.
as §3, §4

[4] = test system: polyamine transport system (PTS), CHO-MG vs CHO cells; details: original CHO-MG line; cited from earlier work
MALME-3 cells [5] = experiment: Cytotoxicity IC50 determination (MTS) in MALME-3 cells; format: cell-based, human; details: 96 h at 37° C., 1 mM AG, 10% FBS
Protocol: Armed with this insight, compounds 5a-8b were evaluated in the MALME-3M (melanoma) cell line and its non-cancerous counterpart MALME-3 obtained originally from the same patient. These matched cell lines provided a method to assess PTS selectivity for the cancer line (MALME-3M) over the non-cancerous cell line (MALME-3).
as §5, §3, §4

[6] = test system: polyamine transport system (PTS) in L1210 cells; details: cited from earlier work
MALME-3 cells [7] = experiment: Spermidine rescue experiments in MALME-3 cells; format: cell-based, human; details: dosed near the IC50 value; increasing spermidine
Protocol: (§6) In order to validate that these drugs were toxic due to their use of the polyamine transport system, spermidine rescue experiments were conducted. Spermidine is a native polyamine and uses the PTS for cell entry. High concentrations of spermidine should outcompete the PTS-targeting drugs for cell entry. In this regard, spermidine when dosed at a non-toxic concentration should rescue the cells from the toxic effects of the PTS targeting agents. […] Both the anthryl and naphthyl systems when dosed at their IC50 concentrations gave >92% viability at 10 μM spermidine validating their use of the PTS. Rescue was observed from the initial 50% viability to >92% viability after co-dosing 10 μM spermidine.
(§7) As stated above, in an effort to determine if the cytotoxicities seen for compounds 6-8 were polyamine transport related, MALME-3M and MALME-3 were dosed near the IC50 value of each drug. These cells were also treated with increasing amounts of spermidine to see if it could outcompete compounds 6-8 for cellular entry and thus rescue the cells. […] This supports the premise that these compounds gain access to these cells primarily via the PTS. […] Since the viability of MALME-3M cells could be partially rescued by spermidine, compounds 8a and 8b may gain access via the PTS and via non-PTS related pathway(s).

[8] = test system: 60 human cancer cell lines; experiment: NCI 60 cell-line screen; format: cell-based; details: 10 μM; 48 h
Protocol: Once compounds 6a-b, 7a-b, and 8a-8b were evaluated in CHO and CHO-MG*, these compounds were sent to the National Cancer institute (NCI) to conduct its 60 cell-line screen to determine if these compounds could also be potent anti-cancer agents for human cancer cell lines. […] As shown in FIGS. 2A-2C, dose response curves were generated based upon the 60 cell-line screen at different molar concentrations of each PTS targeting agent 6b, 7b, and 8b.
To generate FIGS. 2A-2C, the respective drug was dosed at 10 μM into each human cancer cell line and cell viability was assessed after a 48 h incubation at 37° C. in an environment of 5% CO2, 95% air and 100% relative humidity. A more descriptive methodology can be found at the NCI website: http://dtp.nci.nih.gov/branches/btb/ivclsp.html. Cell lines which gave bar graphs which extend to the right of the central line were more sensitive to the drug than cell lines which extended to the left of the center line.

[9] = test system: 60 human cancer cell lines; experiment: NCI 60 cell-line screen; format: cell-based; details: 5-dose assay
MALME-3M cells [10] = experiment: Spermidine rescue experiments in MALME-3M cells; format: cell-based, human; details: drug at its IC50 concentration, co-dosed 10 μM spermidine; cell line not given
Protocol: as §6, §7

in vitro = format: cell-based; details: Chinese hamster
Description: as §1, §2, §3, §4

[11] = 1 mM AG 24 h prior to drug addition, read-out: CHO IC50 (μM) w/AG
[12] = without AG, read-out: CHO IC50 (μM) w/o AG
[13] = 1 mM AG 24 h prior to drug addition, read-out: CHO-MG* IC50 (μM) w/AG
[14] = without AG, read-out: CHO-MG* IC50 (μM) w/o AG
[15] = 48 h at 37° C., 1 mM AG, 10% Nu-Serum IV, read-out: MALME-3M IC50 (μM) w/ AG
[16] = 48 h at 37° C., without AG, 10% Nu-Serum IV, read-out: MALME-3M IC50 (μM) w/o AG
[17] = 96 h at 37° C., 1 mM AG, 10% FBS, read-out: MALME-3M IC50
[18] = Cricetulus griseus, CHO, Table 4, 1 mM AG 24 h prior to drug addition, read-out: CHO IC50
[19] = Cricetulus griseus, CHO-MG, Table 4, 1 mM AG 24 h prior to drug addition, read-out: CHO-MG* IC50

Row | SMILES | IC50 (CHO cells; [11]) [µM] | IC50 (CHO cells; [12]) [µM] | IC50 ratio w/AG (CHO-MG*/CHO) [1] | IC50 ratio w/o AG (CHO-MG*/CHO) [1] | MALME-3/MALME-3M IC50 ratio [2] | IC50 (CHO-MG* cells; [13]) [µM] | IC50 (CHO-MG* cells; [14]) [µM] | IC50 (MALME-3M cells [3]; [15]) [µM] | IC50 (MALME-3M cells [3]; [16]) [µM] | IC50 (MALME-3M cells [3]; [17]) [µM] | IC50 (MALME-3 cells [5]) [nM] | rescue by exogenous spermidine in MALME-3 (MALME-3 cells [7]) | viability at 48 h, 0.01 μM (in vitro) [%] | IC50 (CHO cells; [18]) [µM] | MTD (μM) in CHO (maximum tolerated dose) (CHO cells) | IC50 (CHO-MG* cells; [19]) [µM] | other results
1 | Cl.NCCCCNCCCCNCc1c2ccccc2cc2ccccc12 [Compound 5a, reference compound] | 0.32 | 1.5 | 43 and 42.8 | 1.4 | 3.1 | 13.7 | 2.2 | 0.48 | 0.29 | 0.27 | 830 | – | – | – | – | – | CHO-MG/CHO IC50 ratio [4]: 150 and 148
2 | Cl.NCCCCNCCCCNCc1ccc(CNCCCCNCCCCN)cc1 [Compound 8a] | 0.027 | 10.3 | 727 | 5.5 | 18 | 19.6 | 56.5 | 0.01 | 0.4 | 0.005 | 90 | complete rescue | – | – | – | – | Ki ([6]; read-out: Ki in L1210 cells): 520 nM; Ki ([6]; unit inferred, read-out: Ki values in L1210 cells): 490 ± 20 nM
3 | CNCCCCNCCCCNCc1ccc(CNCCCCNCCCCNC)cc1 [Compound 8b, N1,N1′-(1,4-Phenylenebis(methylene))bis(N4-(4-(methylamino)butyl)butane-1,4-diamine)] | – | – | 1715 | 1316 | 2 | – | – | – | – | – | – | complete rescue | – | – | – | – | effect on breast cancer cell lines in the NCI 60 cell-line screen [8]: exhibited an anti-proliferation effect in breast cancer cell lines, particularly the T-47D cell line; effect on melanoma cell lines in the NCI 60 cell-line screen [8]: inhibited the proliferation of melanoma cell lines, particularly the MALME-3M cell line; IC50 (CHO cells; Cricetulus griseus, CHO, 1 mM AG 24 h prior to drug addition, read-out: CHO IC50 (μM) w/AG): 0.03 µM; IC50 (CHO cells; Cricetulus griseus, CHO, without AG, read-out: CHO IC50 (μM) w/o AG): 0.041 µM; IC50 (CHO-MG* cells; Cricetulus griseus, CHO-MG, 1 mM AG 24 h prior to drug addition, read-out: CHO-MG* IC50 (μM) w/AG): 51.5 µM; IC50 (CHO-MG* cells; Cricetulus griseus, CHO-MG, without AG, read-out: CHO-MG* IC50 (μM) w/o AG): 54 µM; NCI 5-dose assay, MALME-3M cell line [9]: dose dependent response; IC50 (MALME-3M cells [3]; Homo sapiens, Malme-3M, 48 h at 37° C., 1 mM AG, 10% Nu-Serum IV, read-out: MALME-3M IC50 (μM) w/ AG): 0.007 µM; IC50 (MALME-3M cells [3]; Homo sapiens, Malme-3M, 48 h at 37° C., without AG, 10% Nu-Serum IV, read-out: MALME-3M IC50 (μM) w/o AG): 0.007 µM; IC50 (MALME-3M cells [3]; Homo sapiens, Malme-3M, 96 h at 37° C., 1 mM AG, 10% FBS, read-out: MALME-3M IC50): 0.01 µM; viability at 10 μM spermidine (MALME-3M cells [10]): 75%; IC50 (MALME-3 cells [5]; Homo sapiens, MALME-3): 20 nM
4 | NCCCCNCCCCNCc1cccc(CNCCCCNCCCCN)c1 [Compound 34a, N^1,N^1′-(1,3-phenylenebis(methylene))bis(N^4-(4-aminobutyl)butane-1,4-diamine)] | – | – | 1072 | – | – | – | – | – | – | – | – | – | ~90 | 0.028 | 0.01^f μM | 30 | –
5 | NCCCCNCCCCNCCCCNCc1cccc(CNCCCCNCCCCNCCCCN)c1 [Compound 34b, N^1,N^1′-(1,3-phenylenebis(methylene))bis(N^4-(4-((4-aminobutyl)amino)butyl)butane-1,4-diamine)] | – | – | 335 | – | – | – | – | – | – | – | – | – | ~90 | 0.04 | 0.01^g μM | 13.4 | –
